What was measured:
[1] = system: relapsed and refractory CLL patients; experiment: Phase I dose escalation: clinical response and PFS; format: in vivo, human
tumor FDG uptake (SUV) = experiment: FDG PET/CT tumor metabolic response; format: in vivo, human; conditions: Baseline vs Cycle 1 Day 22; 29 subjects scanned, 4 not evaluable
MCL-1 = experiment: Western blot protein expression in patient samples; format: in vivo, human; conditions: 2 and 4 hours of treatment vs pretreatment, P<0.0001
XIAP = experiment: Western blot protein expression in patient samples; format: in vivo, human; conditions: 2 and 4 hours of treatment vs pretreatment
bcl-2 = experiment: Western blot protein expression in patient samples; format: in vivo, human; conditions: 2 and 4 hours of treatment vs pretreatment
T-cells = conditions: pre-clinical; cited from earlier work
CLL cells = conditions: pre-clinical; cited from earlier work

Q: For CCc1cnn2c(NCc3ccc[n+]([O-])c3)cc(N3CCCC[C@H]3CCO)nc12 [Dinaciclib], which “No (%) of Responders” value ([1]; 14 mg/mg/m^2 dosing during treatment, 35 pts) is on record?
A: Its value is 22 (63) No (%).

Q: What about the response rate ([1]; 21 patients without del(17)(p13.1)) of the same compound?
A: The response rate was 57%.

Q: What about the response rate ([1]; 25 patients with del(17)(p13.1)) of the same compound?
A: Its response rate is 56%.

Q: What about the “95% confidence interval of response rate” value ([1]; 35 patients at phase 2 dose of 14 mg/m^2) of the same compound?
A: Its value is 47–79%.

Q: And the “No (%) of Responders” value ([1]; Total, 52 pts)?
A: The value was 28 (54) No (%).

Q: What about the “overall response to therapy” value ([1]; all 52 patients, IWCLL 2008 partial responses) of the same compound?
A: Its value is 54%.

Q: What about the complete responses ([1]; all patients) of the same compound?
A: Its complete responses is “no complete responses”.

Q: What about the “patients off therapy for progression of disease” value ([1]; all patients) of the same compound?
A: Its value is 27%.

Q: And the “median progression free survival” value ([1]; all patients, Kaplan-Meier estimate)?
A: Its value is 481 days.

Q: What about the “median time to response (range)” value ([1]; all responders) of the same compound?
A: Its value is 85 (27–244) days.

Q: What about the response rate ([1]; bulky disease) of the same compound?
A: Its response rate is 52%.

Q: What about the “No (%) of Responders” value ([1]; dose level 5 mg/m^2, 4 pts) of the same compound?
A: The value was 1 (25) No (%).

Q: And the “No (%) of Responders” value ([1]; dose level 10 mg/m^2, 3 pts)?
A: The value was 2 (67) No (%).

Q: And the “No (%) of Responders” value ([1]; dose level 14 mg/m^2, 16 pts)?
A: Its value is 11 (69) No (%).

Q: And the “No (%) of Responders” value ([1]; dose level 17 mg/m^2, 4 pts)?
A: Its value is 1 (25) No (%).

Q: And the “No (%) of Responders” value ([1]; dose level 10→14 mg/m^2, 6 pts)?
A: The value was 4 (67) No (%).

Q: And the response rate ([1]; non-bulky (< 5 cm nodes) disease)?
A: The response rate was 71%.

Q: And the response rate ([1]; prior flavopiridol exposure)?
A: The response rate was 38%.

Q: And the response rate ([1]; recommended phase II dose (14 mg/m^2) at the final dose, 35 patients)?
A: The response rate was 63%.

Q: And the PET non-responders (tumor FDG uptake (SUV))?
A: Its PET non-responders is 10.

Q: And the “PET responders (30% or more decrease in SUV)” value (tumor FDG uptake (SUV))?
A: Its value is 15.

Q: What about the MCL-1 protein expression (MCL-1) of the same compound?
A: Its MCL-1 protein expression is “significantly reduced expression”.

Q: What about the XIAP protein level (XIAP) of the same compound?
A: The XIAP protein level was “no significant change”.

Q: What about the BCL2 protein level (bcl-2) of the same compound?
A: Its BCL2 protein level is “no significant change”.

Q: What about the “cytotoxicity to T-cells” value (T-cells) of the same compound?
A: Its value is “not cytotoxic”.

Q: What about the “therapeutic efficacy against CLL cells as compared to flavopiridol” value (CLL cells) of the same compound?
A: Its value is “improved therapeutic efficacy”.

Source: PMC4551390 (Leukemia, 2015)
